Measurements reported in publication PMC5463734, “Structure-guided optimization of quinoline inhibitors of Plasmodium N-myristoyltransferase” (MedChemComm, 2016).
Where “and” joins values, the source holds several entries; their conditions need not be identical. Identical values can stand only once. Like-named read-outs stand apart in the source and are kept apart here.

Tests used:
[1] = stability in phosphate buffered solutions used for enzymatic assay; format: physicochemical
From the text: It is well known that 2-cyanoethylthioethers can be cleaved in the presence of weak bases such as ammonia through a retro-Michael reaction.[27]

[2] = molecular target: T1, recombinant P. vivax NMT (PvNMT) (Plasmodium vivax, UniProt A5K1A2); set-up: method as in PMID 22439843; settings: recombinant enzyme; read-out: Ki app PvNMT; cited from earlier work
T1 sequence (A5K1A2 1-410): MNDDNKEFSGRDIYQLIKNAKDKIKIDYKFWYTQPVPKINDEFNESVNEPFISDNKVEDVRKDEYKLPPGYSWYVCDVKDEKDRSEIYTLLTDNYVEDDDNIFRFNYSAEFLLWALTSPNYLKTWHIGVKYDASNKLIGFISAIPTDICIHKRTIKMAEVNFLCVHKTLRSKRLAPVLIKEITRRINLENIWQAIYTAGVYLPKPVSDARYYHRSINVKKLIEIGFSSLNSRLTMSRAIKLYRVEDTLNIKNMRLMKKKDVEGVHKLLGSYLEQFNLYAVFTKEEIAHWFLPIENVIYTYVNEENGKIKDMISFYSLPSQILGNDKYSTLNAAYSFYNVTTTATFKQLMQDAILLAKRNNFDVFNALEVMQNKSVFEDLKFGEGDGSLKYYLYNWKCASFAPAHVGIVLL

[3] = molecular target: T1, recombinant P. vivax NMT (PvNMT); assay: biochemical; format: biochemical; settings: for LipE: lipophilic efficiency, LipE = –log(Ki) – clog P, based on PvNMT data; for Ki: recombinant enzyme, mean ± SD from duplicates, Ki app from IC50 by Cheng-Prusoff
Description: (§1) The only residue in the inhibitor-binding pocket that differs between these NMTs is Tyr334 (Pv numbering), which is replaced by a phenylalanine in PfNMT.
(§2) Final compounds were tested using a previously described fluorogenic 96-well plate assay for PvNMT,2 PfNMT3 and […]
(§3) nonlinear regression fitting using GraFit 7.0 (Erithacus Software Ltd., U.K.). Apparent inhibition constants, Kiapp, were calculated from experimental IC50 using Cheng-Prussof equation.5

[4] = molecular target: T2, recombinant P. falciparum NMT (PfNMT) (Plasmodium falciparum, UniProt Q9U419); assay: fluorogenic 96-well plate enzymatic assay for PfNMT activity; format: biochemical; settings: for totally inactive on PfNMT up to: highest concentration without activity; for Ki: recombinant enzyme, mean ± SD from duplicates, Ki app from IC50 by Cheng-Prusoff
T2 sequence (Q9U419 1-410): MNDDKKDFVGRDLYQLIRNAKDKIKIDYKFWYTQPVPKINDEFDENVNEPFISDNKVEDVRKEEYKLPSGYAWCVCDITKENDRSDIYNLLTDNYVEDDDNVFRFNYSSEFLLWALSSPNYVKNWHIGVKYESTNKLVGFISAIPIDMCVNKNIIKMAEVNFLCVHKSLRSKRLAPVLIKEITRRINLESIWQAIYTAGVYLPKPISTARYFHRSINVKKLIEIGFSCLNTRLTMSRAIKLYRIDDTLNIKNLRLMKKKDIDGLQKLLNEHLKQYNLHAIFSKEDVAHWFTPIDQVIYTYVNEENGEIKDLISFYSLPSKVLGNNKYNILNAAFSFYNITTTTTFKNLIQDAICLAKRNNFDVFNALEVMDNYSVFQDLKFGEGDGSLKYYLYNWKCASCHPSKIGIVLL
Description: as §1, §2, §3

[5] = molecular target: T3, recombinant H. sapiens NMT isoform 1 (HsNMT1) (Homo sapiens, UniProt P30419); assay: fluorogenic 96-well plate enzymatic assay for HsNMT1 activity; format: biochemical; settings: for Ki: recombinant enzyme, mean ± SD from duplicates, Ki app from IC50 by Cheng-Prusoff
T3 sequence (P30419 1-496): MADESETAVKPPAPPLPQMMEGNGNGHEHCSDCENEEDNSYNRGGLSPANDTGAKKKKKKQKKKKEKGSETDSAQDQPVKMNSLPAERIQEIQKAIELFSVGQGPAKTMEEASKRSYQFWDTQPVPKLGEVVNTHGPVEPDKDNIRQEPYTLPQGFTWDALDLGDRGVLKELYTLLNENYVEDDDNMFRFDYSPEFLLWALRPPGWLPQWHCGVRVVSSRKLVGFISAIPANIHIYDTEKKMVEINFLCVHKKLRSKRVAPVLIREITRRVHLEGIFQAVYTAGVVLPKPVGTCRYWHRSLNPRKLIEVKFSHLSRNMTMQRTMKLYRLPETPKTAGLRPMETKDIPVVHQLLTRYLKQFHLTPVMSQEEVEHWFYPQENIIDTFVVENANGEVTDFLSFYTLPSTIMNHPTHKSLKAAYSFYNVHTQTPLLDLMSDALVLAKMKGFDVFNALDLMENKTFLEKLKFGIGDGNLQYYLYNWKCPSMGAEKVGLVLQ
Description: as §2, §3

[6] = molecular target: T4, recombinant H. sapiens NMT isoform 2 (HsNMT2) (Homo sapiens, UniProt O60551); assay: fluorogenic 96-well plate enzymatic assay for HsNMT2 activity; format: biochemical; settings: for Ki: recombinant enzyme, mean ± SD from duplicates, Ki app from IC50 by Cheng-Prusoff
T4 sequence (O60551 1-498): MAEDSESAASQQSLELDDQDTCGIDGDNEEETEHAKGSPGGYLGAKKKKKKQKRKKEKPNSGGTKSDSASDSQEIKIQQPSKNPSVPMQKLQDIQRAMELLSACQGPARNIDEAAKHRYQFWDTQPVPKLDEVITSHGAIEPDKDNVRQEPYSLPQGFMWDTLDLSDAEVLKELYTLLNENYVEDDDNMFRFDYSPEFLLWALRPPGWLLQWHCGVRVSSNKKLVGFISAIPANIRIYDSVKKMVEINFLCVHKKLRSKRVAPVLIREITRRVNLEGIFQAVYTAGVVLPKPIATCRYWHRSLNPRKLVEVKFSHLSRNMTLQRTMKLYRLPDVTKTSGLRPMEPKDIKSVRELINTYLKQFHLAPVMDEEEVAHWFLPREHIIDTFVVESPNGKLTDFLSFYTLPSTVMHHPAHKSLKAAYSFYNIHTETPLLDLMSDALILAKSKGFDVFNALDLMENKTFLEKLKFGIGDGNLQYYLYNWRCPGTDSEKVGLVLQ
Description: as §2, §3

[7] = solubility in assay buffer; settings: could not be evaluated

Structure (SMILES) | LipE [3] | Ki ([3]; read-out: Ki app PvNMT) [µM] | Ki ([4]; read-out: Ki app PfNMT) [µM] | Ki [5] [µM] | Ki [6] [µM] | further results
CCOC(=O)c1cnc2ccc(OC)cc2c1SCCC#N [Compound 1, ethyl 4-((2-cyanoethyl)thio)-6-methoxyquinoline-3-carboxylate] |  |  |  |  |  | stability in phosphate buffered solutions [1]: fully stable; Ki [2]: 4.7 µM and 4.74 µM
CCOC(=O)c1cnc2ccc(OCc3ccccc3)cc2c1SCCC#N [Compound 4] | 1.90 | 0.55 ± 0.06 | > 10 | > 10 |  | fold improvement in activity compared to the original methoxy compound ([3]; 6-benzyloxy vs 6-methoxy compound 1): 8 fold; totally inactive on PfNMT up to [4]: > 100 µM
CCCSc1c(C(=O)OCC)cnc2ccc(OCc3ccccc3)cc12 [Compound 5] | 0.22 | 2.08 ± 0.14 | 1.1 ± 0.08 | 3.36 ± 0.37 | > 10 | fold improvement in activity versus PfNMT ([4]; n-propyl thioether vs 2-cyanoethyl thioether): > 10 fold
CCOC(=O)c1cnc2ccc(OCc3ccccc3)cc2c1SC(C)C [Compound 6] |  |  |  | 4.84 ± 0.64 | > 10 | Ki ([4]; Ki app PfNMT): 1.99 ± 0.3 µM
CCOC(=O)c1cnc2ccc(OCc3ccccc3)cc2c1SCC [Compound 7] | 1.42 | 0.44 ± 0.05 | 0.67 ± 0.04 | 1.56 ± 0.22 | 4.23 ± 0.53 | 
CCOC(=O)c1cnc2ccc(OCc3ccccc3)cc2c1SC [Compound 8] | 0.69 | 4.14 ± 0.41 | 5.9 ± 0.6 |  |  | 
CCOC(=O)c1cnc2ccc(OCc3ccccc3)cc2c1[S+]([O-])CC (stereo not drawn) [Compound 9] | 2.46 | 1.75 ± 0.12 | 5.65 ± 1.24 | 3.6 ± 0.3 | > 10 | 
CCOC(=O)c1cnc2ccc(OCc3ccccc3)cc2c1S(=O)(=O)CC [Compound 10] | 2.34 | 1.78 ± 0.47 | > 10 | > 10 | > 10 | 
CCSc1c(CO)cnc2ccc(OCc3ccccc3)cc12 [Compound 11] | 1.57 | 4.19 ± 0.55 | > 10 | > 10 | > 10 | 
CCOCc1cnc2ccc(OCc3ccccc3)cc2c1SCC [Compound 12] | 0.72 | 2.92 ± 0.15 | 2.69 ± 0.51 | > 10 | > 10 | 
CCNC(=O)c1cnc2ccc(OCc3ccccc3)cc2c1SCC [Compound 13] | 2.46 | 0.34 ± 0.05 | 0.96 ± 0.11 | 1.05 ± 0.115 | > 10 | selectivity versus HsNMT1 ([5]; relative to PvNMT): 3 fold; selectivity versus HsNMT2 ([6]; relative to PvNMT): 30 fold
CCSc1c(C(=O)N2CCCC2)cnc2ccc(OCc3ccccc3)cc12 [Compound 15] | 1.74 | 0.96 ± 0.13 | 1.52 ± 0.29 | 1.36 ± 0.21 | > 10 | 
CCSc1c(C(=O)Nc2ccccc2)cnc2ccc(OCc3ccccc3)cc12 [Compound 16] |  |  |  |  |  | solubility [7]: poorly soluble
CCSc1c(C(=O)Nc2nccs2)cnc2ccc(OCc3ccccc3)cc12 [Compound 17] |  |  |  |  |  | solubility [7]: poorly soluble
CCSc1c(C(=O)N2CCOCC2)cnc2ccc(OCc3ccccc3)cc12 [Compound 19] |  |  |  |  | 0.59 ± 0.05 | Ki ([3]; Ki app PvNMT): 0.2 ± 0.02 µM; Ki ([4]; Ki app PfNMT): 0.33 ± 0.02 µM
CCCCc1c(C)nc2ccc(OC)cc2c1SCCC#N [MRT00057965, 3-butyl-4-((2-cyanoethyl)thio)-6-methoxy-2-methylquinoline] |  |  |  |  |  | totally inactive on PfNMT up to [4]: > 100 µM

Second part, led by results:

LipE [3] | Ki ([3]; read-out: Ki app PvNMT) [µM] | Ki ([4]; read-out: Ki app PfNMT) [µM] | Ki [5] [µM] | Ki [6] [µM] | Structure (SMILES) | further results
1.80 | 0.41 ± 0.06 | 0.94 ± 0.09 | 1.02 ± 0.13 | 3.53 ± 0.4 | CCSc1c(C(=O)N(CC)CC)cnc2ccc(OCc3ccccc3)cc12 [Compound 14] | 
2.36 | 2.84 ± 0.38 | 8 ± 3.98 | > 10 | > 10 | CCSc1c(C(=O)NCCO)cnc2ccc(OCc3ccccc3)cc12 [Compound 18] | 
3.57 | 0.28 ± 0.02 | 1.25 ± 0.08 | 0.05 ± 0.01 | 0.41 ± 0.07 | CCOC(=O)c1cnc2ccc(OCc3ccc(NCCN)nc3)cc2c1SCC [Compound 24] | 
